Test results from ChEMBL document CHEMBL4725278, “New coumarin/sulfocoumarin linked phenylacrylamides as selective transmembrane carbonic anhydrase inhibitors: Synthesis and in-vitro biological evaluation” (Bioorg Med Chem, 2020).

Assays:
[1] = target: Carbonic anhydrase 9 (Homo sapiens, UniProt Q16790); experiment: Inhibition of recombinant human carbonic anhydrase 9 assessed as inhibition constant preincubated with enzyme for 10 mins by phenol red dye based stopped flow CO2 hydration assay
[2] = target: Carbonic anhydrase 12 (Homo sapiens, UniProt O43570); experiment: Inhibition of recombinant human carbonic anhydrase 12 assessed as inhibition constant preincubated with enzyme for 10 mins by phenol red dye based stopped flow CO2 hydration assay
Sequence of Carbonic anhydrase 12 (O43570 whole entry): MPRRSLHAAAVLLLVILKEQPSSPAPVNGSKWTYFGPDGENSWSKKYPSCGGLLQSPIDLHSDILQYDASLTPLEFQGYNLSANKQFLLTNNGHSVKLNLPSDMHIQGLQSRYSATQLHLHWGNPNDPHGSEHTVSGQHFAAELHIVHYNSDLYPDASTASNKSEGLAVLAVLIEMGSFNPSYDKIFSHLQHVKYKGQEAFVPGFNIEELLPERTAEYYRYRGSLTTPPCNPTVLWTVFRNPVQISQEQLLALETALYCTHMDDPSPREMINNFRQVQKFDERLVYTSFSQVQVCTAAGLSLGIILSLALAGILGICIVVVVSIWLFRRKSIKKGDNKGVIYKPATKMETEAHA

[3] = target: Carbonic anhydrase 2 (Homo sapiens, UniProt P00918); experiment: Inhibition of recombinant human carbonic anhydrase 2 assessed as inhibition constant preincubated with enzyme for 10 mins by phenol red dye based stopped flow CO2 hydration assay
[4] = target: Carbonic anhydrase 1 (Homo sapiens, UniProt P00915); experiment: Inhibition of recombinant human carbonic anhydrase 1 assessed as inhibition constant preincubated with enzyme for 10 mins by phenol red dye based stopped flow CO2 hydration assay
Sequence of Carbonic anhydrase 1 (P00915 whole entry): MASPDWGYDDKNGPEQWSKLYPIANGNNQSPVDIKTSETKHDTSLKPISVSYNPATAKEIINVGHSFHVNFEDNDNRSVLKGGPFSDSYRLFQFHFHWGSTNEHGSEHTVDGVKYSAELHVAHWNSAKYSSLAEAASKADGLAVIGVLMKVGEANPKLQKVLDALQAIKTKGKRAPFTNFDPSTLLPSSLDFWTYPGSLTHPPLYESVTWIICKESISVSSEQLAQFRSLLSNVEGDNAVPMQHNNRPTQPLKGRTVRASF

Row | Ki [1] [nM] | Ki [2] [nM] | Ki [3] [nM] | Ki [4] [nM] | SMILES
1 | 20.2 | 1.8 | – | – | Cc1cc(=O)oc2cc(NC(=O)NS(=O)(=O)c3ccc(F)cc3)ccc12
2 | 6 | – | – | – | NS(=O)(=O)c1ccc(NC(=O)/C=C/c2ccccc2OC(F)F)cc1
3 | 536 | 208 | > 10000 | > 10000 | COc1cc(/C=C/C(=O)Nc2ccc3c(c2)C=CS(=O)(=O)O3)cc(OC)c1OC
4 | 80.4 | 399 | > 10000 | > 10000 | COc1ccc(/C=C/C(=O)Nc2ccc3c(c2)C=CS(=O)(=O)O3)c(F)c1
5 | 91.1 | 236 | > 10000 | > 10000 | O=C(/C=C/c1ccc(C(F)(F)F)cc1)Nc1ccc2oc(=O)ccc2c1
6 | 514 | 649 | > 10000 | > 10000 | Cc1cc(=O)oc2cc(NC(=O)/C=C/c3ccccc3)ccc12
7 | 682 | 604 | > 10000 | > 10000 | Cc1cc(=O)oc2cc(NC(=O)/C=C/c3ccc(F)cc3)ccc12
8 | 7210 | 557 | > 10000 | > 10000 | O=C(/C=C/c1cccc([N+](=O)[O-])c1)Nc1ccc2oc(=O)ccc2c1
9 | 488 | 567 | > 10000 | > 10000 | Cc1cc(=O)oc2cc(NC(=O)/C=C/c3ccccc3OC(F)F)ccc12
10 | 881 | 760 | > 10000 | > 10000 | N#Cc1ccc(/C=C/C(=O)Nc2ccc3oc(=O)ccc3c2)cc1
11 | 39.8 | 520 | > 10000 | > 10000 | N#Cc1ccc(/C=C/C(=O)Nc2ccc3c(c2)C=CS(=O)(=O)O3)cc1
12 | 157 | 149 | > 10000 | > 10000 | COc1cc(/C=C/C(=O)Nc2ccc3oc(=O)ccc3c2)cc(OC)c1OC
13 | 43 | 411 | > 10000 | > 10000 | O=C(/C=C/c1cccc(F)c1)Nc1ccc2oc(=O)ccc2c1
14 | 3040 | 644 | > 10000 | > 10000 | COc1ccc(/C=C/C(=O)Nc2ccc3c(C)cc(=O)oc3c2)cc1OC
15 | 720 | 568 | > 10000 | > 10000 | O=C(/C=C/c1ccc(F)c(F)c1)Nc1ccc2c(c1)C=CS(=O)(=O)O2
16 | 40.9 | 265 | > 10000 | > 10000 | O=C(/C=C/c1ccc(F)cc1)Nc1ccc2oc(=O)ccc2c1
17 | 647 | 631 | > 10000 | > 10000 | COc1cc(/C=C/C(=O)Nc2ccc3c(C)cc(=O)oc3c2)cc(OC)c1OC

Row | Ki [1] [nM] | Ki [2] [nM] | Ki [3] [nM] | Ki [4] [nM] | SMILES
18 | 87.4 | 446 | > 10000 | > 10000 | COc1ccc(/C=C/C(=O)Nc2ccc3oc(=O)ccc3c2)c(OC)c1
19 | 88.9 | 343 | > 10000 | > 10000 | O=C(/C=C/c1ccc(Cl)cc1)Nc1ccc2oc(=O)ccc2c1
20 | 340 | 206 | > 10000 | > 10000 | O=C(/C=C/c1ccc(F)c(F)c1)Nc1ccc2oc(=O)ccc2c1
21 | 305 | 701 | > 10000 | > 10000 | O=C(/C=C/c1cc(Cl)cc(Cl)c1)Nc1ccc2oc(=O)ccc2c1
22 | 472 | 137 | > 10000 | > 10000 | COc1ccc(/C=C/C(=O)Nc2ccc3oc(=O)ccc3c2)c(F)c1
23 | 88 | 221 | > 10000 | > 10000 | O=C(/C=C/c1cccc(C(F)(F)F)c1)Nc1ccc2oc(=O)ccc2c1
24 | 384 | 394 | > 10000 | > 10000 | O=C(/C=C/c1ccccc1OC(F)F)Nc1ccc2oc(=O)ccc2c1
25 | 854 | 575 | > 10000 | > 10000 | Cc1cc(=O)oc2cc(NC(=O)/C=C/c3ccc(C#N)cc3)ccc12
26 | 321 | 15.5 | > 10000 | > 10000 | COc1ccc(/C=C/C(=O)Nc2ccc3oc(=O)ccc3c2)cc1OC
27 | 65.4 | 480 | > 10000 | > 10000 | O=C(/C=C/c1cccc(C(F)(F)F)c1)Nc1ccc2c(c1)C=CS(=O)(=O)O2
28 | 773 | 699 | > 10000 | > 10000 | Cc1cc(=O)oc2cc(NC(=O)/C=C/c3ccc(F)c(F)c3)ccc12
29 | 817 | 847 | > 10000 | > 10000 | COc1ccc(/C=C/C(=O)Nc2ccc3c(C)cc(=O)oc3c2)c(F)c1
30 | 884 | 427 | > 10000 | > 10000 | COc1ccc(/C=C/C(=O)Nc2ccc3oc(=O)ccc3c2)cc1
31 | 131 | 829 | > 10000 | > 10000 | O=C(/C=C/c1ccccc1)Nc1ccc2oc(=O)ccc2c1
32 | 517 | 506 | > 10000 | > 10000 | O=C(/C=C/c1ccc(F)cc1)Nc1ccc2c(c1)C=CS(=O)(=O)O2
33 | 639 | 539 | > 10000 | > 10000 | Cc1cc(=O)oc2cc(NC(=O)/C=C/c3cccc(F)c3)ccc12
34 | 92.8 | 349 | > 10000 | > 10000 | O=C(/C=C/c1ccccc1OC(F)F)Nc1ccc2c(c1)C=CS(=O)(=O)O2
